# Experimental data taken from patent publication US7872014B2, “Anaplastic lymphoma kinase modulators and methods of use” (Exelixis, Inc., priority 2003, dated 2011).
# pIC50: −log10 of the molar value.
# Biological target: T1, ALK (baculovirus expressed human ALK kinase domain F1098-K1410) (Homo sapiens, UniProt Q9UM73)
# T1 construct: baculovirus expressed human ALK kinase domain F1098-K1410; made in house
# Assay: Luciferase-Coupled Chemiluminescent Kinase assay (LCCA), ALK biochemical activity
# Conditions: inhibition of ALK; mean values; 1 μM ATP, 4 μM poly-AEKY, 12 nM ALK, 2 hours ambient temperature
# Method in brief: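 Luciferase-coupled readout of ATP remaining after reaction of 12 nM ALK kinase domain with 1 μM ATP and 4 μM poly-AEKY, Tris-HCl pH 7.5 buffer with MgCl2 and MnCl2. Incubated 2 h at ambient temperature; inhibition derived from ATP consumption across serial compound dilutions.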
# T1 sequence (Q9UM73 1098-1410): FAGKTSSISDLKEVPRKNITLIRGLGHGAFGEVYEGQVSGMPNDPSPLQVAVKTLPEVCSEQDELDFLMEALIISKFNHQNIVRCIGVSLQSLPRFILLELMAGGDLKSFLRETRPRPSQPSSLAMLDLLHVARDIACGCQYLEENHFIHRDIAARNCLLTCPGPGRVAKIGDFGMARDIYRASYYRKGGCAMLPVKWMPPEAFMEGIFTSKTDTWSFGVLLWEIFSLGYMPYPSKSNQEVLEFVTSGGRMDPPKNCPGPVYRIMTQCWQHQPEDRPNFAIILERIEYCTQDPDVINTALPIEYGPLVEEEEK
row,pIC50,Structure (SMILES)
1,≥ 7.00,"Cc1n[nH]c2nc(-c3ccc(O)c(Cl)c3)c3c(F)cc(OCCN4CCCCC4)c(F)c3c12 [Example 186, 2-chloro-4-{6,9-difluoro-1-methyl-8-[(2-piperidin-1-ylethyl)oxy]-3H-pyrazolo[3,4-c]isoquinolin-5-yl}phenol]"
2,6.00 to 7.00,"COc1cc(OC)c2c(-c3ccc(O)cc3)nc3[nH]ncc3c2c1 [Example 32, 4-[6,8-bis(methyloxy)-3H-pyrazolo[3,4-c]isoquinolin-5-yl]phenol]"
3,6.00 to 7.00,"Cc1n[nH]c2nc(-c3ccc4[nH]ccc4c3)c3c(F)cc(O)c(F)c3c12 [Example 191, 6,9-difluoro-5-(1H-indol-5-yl)-1-methyl-3H-pyrazolo[3,4-c]isoquinolin-8-ol]"
4,≥ 7.00,"COCCOc1cc(F)c2c(-c3ccc(O)c(Cl)c3)nc3[nH]nc(C)c3c2c1F [Example 127, 2-chloro-4-(6,9-difluoro-1-methyl-8-{[2-(methyloxy)ethyl]oxy}-3H-pyrazolo[3,4-c]isoquinolin-5-yl)phenol]"
5,≥ 7.00,"COc1c(OCCN(C(C)C)C(C)C)cc(F)c2c(-c3ccc(O)c(Cl)c3)nc3[nH]nc(C)c3c12 [Example 243, 4-[8-({2-[bis(1-methylethyl)amino]ethyl}oxy)-6-fluoro-1-methyl-9-(methyloxy)-3H-pyrazolo[3,4-c]isoquinolin-5-yl]-2-chlorophenol]"
6,6.00 to 7.00,"COc1cc(-c2nc3[nH]nc(C)c3c3cc(OC)c(OC)cc23)ccc1O [Example 38, 4-[1-methyl-7,8-bis(methyloxy)-3H-pyrazolo[3,4-c]isoquinolin-5-yl]-2-(methyloxy)phenol]"
7,≥ 7.00,"COCCOc1cc2c(cc1OC)c(-c1ccc(O)c(Cl)c1)nc1[nH]nc(C)c12 [Example 115, 2-chloro-4-(1-methyl-7-(methyloxy)-8-{[2-(methyloxy)ethyl]oxy}-3H-pyrazolo[3,4-c]isoquinolin-5-yl)phenol]"
8,≥ 7.00,"CCN(CC)CCN(C)CCOc1cc(F)c2c(-c3ccc(O)c(Cl)c3)nc3[nH]nc(C)c3c2c1OC [Example 228, 2-chloro-4-[8-({2-[[2-(diethylamino)ethyl](methyl)amino]ethyl}oxy)-6-fluoro-1-methyl-9-(methyloxy)-3H-pyrazolo[3,4-c]isoquinolin-5-yl]phenol]"
9,6.00 to 7.00,"COc1cc2c(cc1F)c(-c1ccc(O)cc1)nc1[nH]nc(C)c12 [Example 109, 4-[7-fluoro-1-methyl-8-(methyloxy)-3H-pyrazolo[3,4-c]isoquinolin-5-yl]phenol]"
10,≥ 7.00,"Cc1n[nH]c2nc(-c3cnc(N)s3)c3c(F)cc(O)c(F)c3c12 [Example 195, 5-(2-amino-1,3-thiazol-5-yl)-6,9-difluoro-1-methyl-3H-pyrazolo[3,4-c]isoquinolin-8-ol]"
11,≥ 7.00,"COCCOc1c(OC)ccc2c(-c3ccc(O)c(Cl)c3)nc3[nH]nc(C)c3c12 [Example 112, 2-chloro-4-(1-methyl-8-(methyloxy)-9-{[2-(methyloxy)ethyl]oxy}-3H-pyrazolo[3,4-c]isoquinolin-5-yl)phenol]"
12,6.00 to 7.00,"COc1cc2c(c(-c3ccc(O)c(Cl)c3)nc3[nH]nc(C)c32)c(Cl)c1OC [Example 129, 2-chloro-4-[6-chloro-1-methyl-7,8-bis(methyloxy)-3H-pyrazolo[3,4-c]isoquinolin-5-yl]phenol]"
13,≥ 7.00,"COc1cc2c(-c3ccc(O)c(Cl)c3)nc3[nH]nc(C)c3c2cc1OC [Example 41, 2-chloro-4-[1-methyl-7,8-bis(methyloxy)-3H-pyrazolo[3,4-c]isoquinolin-5-yl]phenol]"
14,≥ 7.00,"CCN1CCC(COc2cc3c(cc2OC)c(-c2ccc(O)c(Cl)c2)nc2[nH]nc(C)c23)CC1 [Example 95, 2-chloro-4-[8-{[(1-ethylpiperidin-4-yl)methyl]oxy}-1-methyl-7-(methyloxy)-3H-pyrazolo[3,4-c]isoquinolin-5-yl]phenol]"
15,≥ 7.00,"COCCN(CCOC)CCOc1cc(F)c2c(-c3ccc(O)c(Cl)c3)nc3[nH]nc(C)c3c2c1OC [Example 244, 4-[8-[(2-{bis[2-(methyloxy)ethyl]amino}ethyl)oxy]-6-fluoro-1-methyl-9-(methyloxy)-3H-pyrazolo[3,4-c]isoquinolin-5-yl]-2-chlorophenol]"
16,≥ 7.00,"CCN1CCN(CCOc2cc(F)c3c(-c4ccc(O)c(Cl)c4)nc4[nH]nc(C)c4c3c2F)CC1 [Example 187, 2-chloro-4-(8-{[2-(4-ethylpiperazin-1-yl)ethyl]oxy}-6,9-difluoro-1-methyl-3H-pyrazolo[3,4-c]isoquinolin-5-yl)phenol]"
17,≥ 7.00,"COCCOc1cc(F)c2c(-c3cc(Br)c(O)cc3F)nc3[nH]nc(C)c3c2c1F [Example 148, 2-bromo-4-(6,9-difluoro-1-methyl-8-{[2-(methyloxy)ethyl]oxy}-3H-pyrazolo[3,4-c]isoquinolin-5-yl)-5-fluorophenol]"
18,6.00 to 7.00,"COCCOc1cc2c(-c3ccc(O)c(Cl)c3)nc3[nH]nc(C)c3c2cc1OCCOC [Example 117, 2-chloro-4-(1-methyl-7,8-bis{[2-(methyloxy)ethyl]oxy}-3H-pyrazolo[3,4-c]isoquinolin-5-yl)phenol]"
19,≥ 7.00,"Cc1n[nH]c2nc(-c3cc(Cl)c(O)cc3F)c3ccc4c(c3c12)OCCO4 [Example 146, 2-chloro-5-fluoro-4-(11-methyl-2,3-dihydro-9H-[1,4]dioxino[2,3-f]pyrazolo[3,4-c]isoquinolin-7-yl)phenol]"
20,≥ 7.00,"COc1cc2c(cc1C)c(-c1ccc(O)c(Cl)c1)nc1[nH]nc(C)c12 [Example 101, 2-chloro-4-[1,7-dimethyl-8-(methyloxy)-3H-pyrazolo[3,4-c]isoquinolin-5-yl]phenol]"
21,≥ 7.00,"COc1c(F)cc2c(c(-c3ccc(O)c(Cl)c3)nc3[nH]nc(C)c32)c1O [Example 170, 5-(3-chloro-4-hydroxyphenyl)-8-fluoro-1-methyl-7-(methyloxy)-3H-pyrazolo[3,4-c]isoquinolin-6-ol]"
22,6.00 to 7.00,"COc1cc2c(-c3cc(C)c(O)cc3C)nc3[nH]nc(C)c3c2cc1OC [Example 83, 2,5-dimethyl-4-[1-methyl-7,8-bis(methyloxy)-3H-pyrazolo[3,4-c]isoquinolin-5-yl]phenol]"
23,≥ 7.00,"CCN1CC2CC1CN2CCOc1cc(F)c2c(-c3ccc(O)c(Cl)c3)nc3[nH]nc(C)c3c2c1OC (centres unmarked) [Example 215, 2-chloro-4-[8-{[2-(5-ethyl-2,5-diazabicyclo[2.2.1]hept-2-yl)ethyl]oxy}-6-fluoro-1-methyl-9-(methyloxy)-3H-pyrazolo[3,4-c]isoquinolin-5-yl]phenol]"
24,≥ 7.00,"COc1cc2c(-c3cc(Cl)c(O)cc3F)nc3[nH]nc(C)c3c2cc1OC [Example 121, 2-chloro-5-fluoro-4-[1-methyl-7,8-bis(methyloxy)-3H-pyrazolo[3,4-c]isoquinolin-5-yl]phenol]"
25,≥ 7.00,"COCCOc1cc2c(cc1C(C)C)c(-c1ccc(O)c(Cl)c1)nc1[nH]nc(C)c12 [Example 167, 2-chloro-4-(1-methyl-7-(1-methylethyl)-8-{[2-(methyloxy)ethyl]oxy}-3H-pyrazolo[3,4-c]isoquinolin-5-yl)phenol]"
26,≥ 7.00,"COc1c(OCC2CCN(C)CC2)cc(F)c2c(-c3cc(Cl)c(O)cc3F)nc3[nH]nc(C)c3c12 [Example 184, 2-chloro-5-fluoro-4-(6-fluoro-1-methyl-9-(methyloxy)-8-{[(1-methylpiperidin-4-yl)methyl]oxy}-3H-pyrazolo[3,4-c]isoquinolin-5-yl)phenol]"
